Test results: US12415815B2, “Pyrido[2,3-e]oxazine derivatives as agricultural chemicals” (GLOBACHEM NV, priority 2020, dated 2025)
Values after ≈ are worked out from the molar mass of the structure shown.

Experiments:
Format in all cases: cell-based
Botrytis cinerea = assay: Fungicidal activity screen in amended agar, 96 well plates, Botrytis cinerea; details: Medium N agar, 5,000 spores/ml, 20, 2, 0.2 and 0.02 ppm, room temperature (18° C.), assessed after 3 to 4 days, read-out: Botrytis (fungal growth vs DMSO controls, EC50 ranking)
Description: (§1) Compounds were screened in 96 well plates with 10 compounds per plate. Each compound was screened using agar amended to 20, 2, 0.2 and 0.02 ppm of the test material. Proline at 50 and 10 ppm and 0.2% DMSO were used respectively as positive and negative controls. Each test concentration and standard were tested twice on a plate.
(§2) Compounds were screened against the following three fungal pathogens—Botrytis cinerea, Alternaria alternata and Zymoseptoria tritici. The agar used in the test varied depending on the pathogen with Medium N used for B. cinerea and A. alternata and 1% potato dextrose agar for Z. tritici. For each pathogen sufficient spores were added to the appropriate agar to give 1,000 spores/mL agar of A. alternata, 5,000 spores/ml agar of B. cinerea and 10,000 spores/mL agar of Z. tritici.
(§3) A ×10 stock solution in 2% DMSO was produced for each dose i.e. 200, 20, 2 and 0.2 ppm, and 10 μl of this added to the appropriate wells on the plate. An equivalent amount of 2% DMSO and Proline stock at 500 and 100 ppm were added for the controls. To each well, 90 μl of the appropriate agar spore suspension was added to give the final well concentrations outlined in the first paragraph.
(§4) Plates were incubated at room temperature (18° C.) and assessed after: • a) 3 to 4 days A. alternata and B. cinerea • b) 7 days for Z. tritici
(§5) The amount of fungal growth in each well was compared to the DMSO controls and scored according to the following key: • A—EC50<2 ppm • B—2≤EC50<20 • C—EC50≥20 • D—No activity detected at the highest dose tested • NT—Not tested

Alternaria alternata = assay: Fungicidal activity screen in amended agar, 96 well plates, Alternaria alternata; details: Medium N agar, 1,000 spores/mL, 20, 2, 0.2 and 0.02 ppm, room temperature (18° C.), assessed after 3 to 4 days, read-out: Alternaria (fungal growth vs DMSO controls, EC50 ranking)
Description: as §1, §2, §3, §4, §5

Zymoseptoria tritici = assay: Fungicidal activity screen in amended agar, 96 well plates, Zymoseptoria tritici; details: 1% potato dextrose agar, 10,000 spores/mL, 20, 2, 0.2 and 0.02 ppm, room temperature (18° C.), assessed after 7 days; for EC50: Zymoseptoria tritici, 168 h, read-out: Zymoseptoria (fungal growth vs DMSO controls, EC50 ranking)
Description: as §1, §2, §3, §4, §5

COc1ccnc2c(=O)n(-c3nc4ccc(OC5CCCC5)cc4s3)c(=S)oc12 [Example 23, 3-(6-(Cyclopentyloxy)benzo[d]thiazol-2-yl)-8-methoxy-2-thioxo-2,3-dihydro-4H-pyrido[2,3-e][1,3]oxazin-4-one]
EC50 (Botrytis cinerea): 2 to 20 µg/mL (≈ 4.68 to 46.8 µM) | EC50 (Alternaria alternata): ≥ 20 µg/mL | EC50 (Zymoseptoria tritici): < 2 µg/mL

COc1ccnc2c(=O)n(-c3nc4ccc(Oc5ccccc5OC(F)(F)F)cc4s3)c(=S)oc12 [Example 39, 8-methoxy-2-thioxo-3-(6-(2-(trifluoromethoxy)phenoxy)benzo[d]thiazol-2-yl)-2,3-dihydro-4H-pyrido[2,3-e][1,3]oxazin-4-one]
EC50 (Botrytis cinerea): ≥ 20 µg/mL | EC50 (Alternaria alternata): ≥ 20 µg/mL | EC50 (Zymoseptoria tritici): < 2 µg/mL

COc1ccnc2c(=O)n(-c3nc4ccc(Oc5ccccc5OCC5CC5)cc4s3)c(=S)oc12 [Example 44, 3-(6-(2-(cyclopropylmethoxy)phenoxy)benzo[d]thiazol-2-yl)-8-methoxy-2-thioxo-2,3-dihydro-4H-pyrido[2,3-e][1,3]oxazin-4-one]
EC50 (Zymoseptoria tritici): 2 to 20 µg/mL (≈ 3.96 to 39.6 µM)

COc1ccnc2c(=O)n(-c3nc4ccc(Sc5ccccc5Cl)nc4s3)c(=S)oc12 [Example 38, 3-(5-((2-chlorophenyl)thio)thiazolo [5,4-b]pyridin-2-yl)-8-methoxy-2-thioxo-2,3-dihydro-4H-pyrido[2,3-e][1,3]oxazin-4-one]
EC50 (Botrytis cinerea): ≥ 20 µg/mL | EC50 (Alternaria alternata): ≥ 20 µg/mL | EC50 (Zymoseptoria tritici): < 2 µg/mL

COc1ccnc2c(=O)n(-c3nc4ccc(Oc5ccccc5C(F)(F)F)cc4s3)c(=S)oc12 [Example 20, 8-Methoxy-2-thioxo-3-(6-(2-(trifluoromethyl)phenoxy)benzo[d]thiazol-2-yl)-2,3-dihydro-4H-pyrido[2,3-e][1,3]oxazin-4-one]
EC50 (Botrytis cinerea): 2 to 20 µg/mL (≈ 3.97 to 39.7 µM) | EC50 (Alternaria alternata): 2 to 20 µg/mL (≈ 3.97 to 39.7 µM) | EC50 (Zymoseptoria tritici): < 2 µg/mL

COc1ccnc2c(=O)n(-c3nc4ccc(Oc5ccccc5Cl)cc4s3)c(=S)oc12 [Example 18, 3-(6-(2-Chlorophenoxy)benzo[d]thiazol-2-yl)-8-methoxy-2-thioxo-2,3-dihydro-4H-pyrido[2,3-e][1,3]oxazin-4-one]
EC50 (Zymoseptoria tritici): < 2 µg/mL

COc1ccccc1Sc1ccc2nc(-n3c(=S)oc4c(OC)ccnc4c3=O)sc2c1 [Example 45, 8-methoxy-3-(6-((2-methoxyphenyl)thio)benzo[d]thiazol-2-yl)-2-thioxo-2,3-dihydro-4H-pyrido[2,3-e][1,3] oxazin-4-one]
EC50 (Zymoseptoria tritici): 2 to 20 µg/mL (≈ 4.15 to 41.5 µM)

3-(7-chloro-6-(2-chlorophenoxy) benzo[d]thiazol-2-yl)-8-methoxy-2- thioxo-2,3-dihydro-4H-pyrido[2,3- e][1,3]oxazin-4-one [Example 35]
Zymoseptoria (fungal growth vs DMSO controls, EC50 ranking) (Zymoseptoria tritici): A (EC50<2 ppm)

COc1ccnc2c(=O)n(-c3nc4ccc(Oc5cc(F)cc(F)c5)cc4s3)c(=S)oc12 [Example 21, 3-(6-(3,5-Difluorophenoxy)benzo[d]thiazol-2-yl)-8-methoxy-2-thioxo-2,3-dihydro-4H-pyrido[2,3-e][1,3]oxazin-4-one]
EC50 (Botrytis cinerea): 2 to 20 µg/mL (≈ 4.24 to 42.4 µM) | EC50 (Alternaria alternata): 2 to 20 µg/mL (≈ 4.24 to 42.4 µM) | EC50 (Zymoseptoria tritici): < 2 µg/mL

COc1ccnc2c(=O)n(-c3nc4ccc(Oc5ccc(C(F)(F)F)cc5Cl)nc4s3)c(=S)oc12 [Example 48, 3-(5-(2-chloro-4-(trifluoromethyl)phenoxy)thiazolo[5,4-b]pyridin-2-yl)-8-methoxy-2-thioxo-2,3-dihydro-4H-pyrido[2,3-e][1,3]oxazin-4-one]
EC50 (Botrytis cinerea): ≥ 20 µg/mL | EC50 (Alternaria alternata): ≥ 20 µg/mL | EC50 (Zymoseptoria tritici): < 2 µg/mL

COc1ccnc2c(=O)n(-c3nc4ccc(Cc5ccccc5)cc4s3)c(=S)oc12 [Example 24, 3-(6-Benzylbenzo[d]thiazol-2-yl)-8-methoxy-2-thioxo-2,3-dihydro-4H-pyrido[2,3-e][1,3]oxazin-4-one]
EC50 (Zymoseptoria tritici): 2 to 20 µg/mL (≈ 4.61 to 46.1 µM)

COc1ccnc2c(=O)n(-c3nc4ccc(Oc5ccc(C(F)(F)F)cc5)cc4s3)c(=S)oc12 [Example 46, 8-methoxy-2-thioxo-3-(6-(4-(trifluoromethyl)phenoxy)benzo[d]thiazol-2-yl)-2,3-dihydro-4H-pyrido[2,3-e][1,3]oxazin-4-one]
EC50 (Zymoseptoria tritici): < 2 µg/mL

COc1ccnc2c(=O)n(-c3nc4ccc(N(C)c5ccc(Cl)cc5)cc4s3)c(=S)oc12 [Example 32, 3-(6-((4-chlorophenyl)(methyl)amino)benzo[d]thiazol-2-yl)-8-methoxy-2-thioxo-2,3-dihydro-4H-pyrido[2,3-e][1,3]oxazin-4-one]
EC50 (Zymoseptoria tritici): < 2 µg/mL

COc1ccnc2c(=O)n(-c3nc4ccc(N(C)c5cncc(Cl)c5)cc4s3)c(=S)oc12 [Example 33, 3-(6-((5-chloropyridin-3-yl)(methyl)amino)benzo[d]thiazol-2-yl)-8-methoxy-2-thioxo-2,3-dihydro-4H-pyrido[2,3-e][1,3]oxazin-4-one]
EC50 (Zymoseptoria tritici): 2 to 20 µg/mL (≈ 4.13 to 41.3 µM)

COc1ccnc2c(=O)n(-c3nc4ccc(C(=O)c5ccccc5)cc4s3)c(=S)oc12 [Example 19, 3-(6-Benzoylbenzo[d]thiazol-2-yl)-8-methoxy-2-thioxo-2,3-dihydro-4H-pyrido[2,3-e][1,3]oxazin-4-one]
EC50 (Zymoseptoria tritici): 2 to 20 µg/mL (≈ 4.47 to 44.7 µM)

COc1ccnc2c(=O)n(-c3nc4c(-c5ccccc5)cc(Oc5ccc(F)cc5Cl)cc4s3)c(=S)oc12 [Example 13, 3-(6-(2-Chloro-4-fluorophenoxy)-4-phenylbenzo[d]thiazol-2-yl)-8-methoxy-2-thioxo-2,3-dihydro-4H-pyrido[2,3-e][1,3]oxazin-4-one]
EC50 (Zymoseptoria tritici): < 2 µg/mL

COc1ccnc2c(=O)n(-c3nc4ccc(OCC(C)C)cc4s3)c(=S)oc12 [Example 43, 3-(6-isobutoxybenzo[d]thiazol-2-yl)-8-methoxy-2-thioxo-2,3-dihydro-4H-pyrido[2,3-e][1,3]oxazin-4-one]
EC50 (Zymoseptoria tritici): < 2 µg/mL

COCCOc1ccccc1Oc1ccc2nc(-n3c(=S)oc4c(OC)ccnc4c3=O)sc2c1 [Example 37, 8-methoxy-3-(6-(2-(2-methoxyethoxy)phenoxy)benzo[d]thiazol-2-yl)-2-thioxo-2,3-dihydro-4H-pyrido[2,3-e][1,3]oxazin-4-one]
EC50 (Zymoseptoria tritici): 2 to 20 µg/mL (≈ 3.92 to 39.2 µM)

COc1ccnc2c(=S)n(-c3nc4ccc(Oc5ccccc5Cl)cc4s3)c(=S)oc12 [Example 26, 3-(6-(2-Chlorophenoxy)benzo[d]thiazol-2-yl)-8-methoxy-2H-pyrido[2,3-e][1,3]oxazine-2,4(3H)-dithione]
EC50 (Zymoseptoria tritici): < 2 µg/mL

COc1ccnc2c(=O)n(-c3nc4cnc(Oc5ccc(F)cc5Cl)nc4s3)c(=S)oc12 [Example 14, 3-(5-(2-Chloro-4-fluorophenoxy)thiazolo[5,4-d]pyrimidin-2-yl)-8-methoxy-2-thioxo-2,3-dihydro-4H-pyrido[2,3-e][1,3]oxazin-4-one]
EC50 (Zymoseptoria tritici): < 2 µg/mL

COc1ccccc1Oc1ccc2nc(-n3c(=S)oc4c(OC)ccnc4c3=O)sc2c1 [Example 30, 8-methoxy-3-(6-(2-methoxyphenoxy)benzo[d]thiazol-2-yl)-2-thioxo-2,3-dihydro-4H-pyrido[2,3-e][1,3]oxazin-4-one]
EC50 (Zymoseptoria tritici): < 2 µg/mL

COc1ccnc2c(=O)n(-c3nc4ccc(Oc5ccc(Cl)cc5)cc4s3)c(=S)oc12 [Example 25, 3-(6-(4-Chlorophenoxy)benzo[d]thiazol-2-yl)-8-methoxy-2-thioxo-2,3-dihydro-4H-pyrido[2,3-e][1,3]oxazin-4-one]
EC50 (Zymoseptoria tritici): < 2 µg/mL

COc1ccnc2c(=O)n(-c3nc4cc(-c5ccccc5Cl)c(Oc5ccc(F)cc5Cl)cc4s3)c(=S)oc12 [Example 12, 3-(6-(2-Chloro-4-fluorophenoxy)-5-(2-chlorophenyl)benzo[d]thiazol-2-yl)-8-methoxy-2-thioxo-2,3-dihydro-4H-pyrido[2,3-e][1,3]oxazin-4-one]
EC50 (Zymoseptoria tritici): < 2 µg/mL

COc1ccnc2c(=O)n(-c3nc4ccc(N(C)c5ccccc5Cl)cc4s3)c(=S)oc12 [Example 31, 3-(6-((2-chlorophenyl)(methyl)amino)benzo[d]thiazol-2-yl)-8-methoxy-2-thioxo-2,3-dihydro-4H-pyrido[2,3-e][1,3]oxazin-4-one]
EC50 (Zymoseptoria tritici): < 2 µg/mL

COc1ccnc2c(=O)n(-c3nc4ccc(Sc5ccccc5Cl)cc4s3)c(=S)oc12 [Example 34, 3-(6-((2-chlorophenyl)thio)benzo[d]thiazol-2-yl)-8-methoxy-2-thioxo-2,3-dihydro-4H-pyrido[2,3-e][1,3]oxazin-4-one]
EC50 (Zymoseptoria tritici): < 2 µg/mL

COc1ccnc2c(=O)n(-c3nc4ccc(C(=O)OC(C)C)cc4s3)c(=S)oc12 [Example 15, Isopropyl 2-(8-methoxy-4-oxo-2-thioxo-2H-pyrido[2,3-e][1,3]oxazin-3(4H)-yl)benzo[d]thiazole-6-carboxylate]
EC50 (Zymoseptoria tritici): < 2 µg/mL

COc1ccnc2c(=O)n(-c3nc4ccc(N(C)c5ccc(F)cc5Cl)cc4s3)c(=S)oc12 [Example 16, 3-(6-((2-Chloro-4-fluorophenyl)(methyl)amino)benzo[d]thiazol-2-yl)-8-methoxy-2-thioxo-2,3-dihydro-4H-pyrido[2,3-e][1,3]oxazin-4-one]
EC50 (Zymoseptoria tritici): < 2 µg/mL
